Measured values: patent publication US8642622B2, “Piperidinyl compound as a modulator of chemokine receptor activity” (Bristol-Myers Squibb Company, priority 2010, dated 2014)

Tests used:
[1] = molecular target: T1, human cardiac sodium channel, SCNSA (Homo sapiens, UniProt Q14524); test: Sodium channel whole-cell patch-clamp assay; assay type: cell-based; conditions: HEK293, HEK-293, protein-free buffer, read-out: Na channel, % inh
T1 construct: expressed in transfected cells; host or cells: HEK-293
Protocol: Whole-cell patch-clamp was used to directly measure inward sodium currents in HEK-293 cells expressing the human cardiac sodium channel, SCNSA. After reach steady-state effect in the presence of drug, rate-dependence was assessed by stimulation at frequencies of 1 Hz and 4 Hz. Experiments were carried out using an aqueous buffer at pH 7.4 and at room temperature. There is no protein in the buffer and drug concentrations reported are nominal free drug levels. Test article was evaluated up to 10 μM (protein-free buffer). […] Data is reported as percent inhibition at a fixed concentration.

[2] = Electrocardiography in anesthetized rabbits (rabbit in vivo EP effect); conditions: for QT effect Dose: i.v. infusion 3, 10, 30 mg/kg; for QTcf, delta: change from pre-drug baseline
Protocol: A dose-response study of test compound was conducted in anesthetized rabbits to assess the cardiac electrophysiologic profile established in the cellular ion channel assays.
Experiments were performed in propofol-fentanyl anesthetized closed-chest male rabbits. A body surface electrocardiogram (ECG) and an intra-cardiac His-bundle electrogram were continuously monitored and recorded during the studies, using a PoNeMah system and a Prucka electrophysiological recording system, respectively. Test compound was prepared on the day of study in a vehicle of PEG400:ethanol:water (1:1:1) at a dosing concentration of 30 mg/mL. Test compound (n=3) or vehicle (n=3) was given intravenously over 5 minutes via an infusion pump at incremental doses of 3, 10 and 30 mg/kg. The interval between doses was 10 minutes, allowing for a 5-minute test agent infusion and a 5-minute rest period. Blood was sampled at baseline (pre-drug infusion) and immediately at the end of each infusion. For the 30 mg/kg dose, additional blood samples were taken at 10, 20 and 30 minutes after the end of infusion.
PR interval, QRS duration and QT interval were averaged from a 1 minute ECG recording period at time of blood sampling. QT interval was corrected for heart rate effects using both Fridericia (QTcf) and Van der Water (QTcv) formulae. AH and HV intervals, representing A-V node conduction and His-Purkinje conduction, respectively, were assessed by manual measurements from the His-bundle electrogram. Data were expressed as percent change from pre-drug baseline (mean±SEM) for PR, QRS, AH and HV intervals as well as delta change from the pre-drug infusion baseline (mean±SEM) for QTc intervals. Changes of 10% in PR, QRS, and AH intervals, and 20% in HV interval, as well as >10 ms in QTc interval are considered significant based on experience with the model.

[3] = Single-dose pharmacokinetics in dogs; assay type: in vivo; conditions: for clearance: intravenous
Protocol: Serial blood samples were collected for all studies at various time points post dose (0.17 (or 0.25 for oral), 0.5, 0.75, 1, 2, 4, 6, 8 and 24 h, for example). Plasma samples were analyzed by LC-MS/MS.

[4] = Single-dose pharmacokinetics in rats; assay type: in vivo; conditions: for clearance / bioavailability: male, Sprague-Dawley, rat, plasma; for clearance: intravenous; for bioavailability: po
Protocol: Serial blood samples were collected for all studies from the jugular vein at various time points post dose (0.17 (or 0.25 for oral), 0.5, 0.75, 1, 2, 4, 6, 8 and 24 h, for example). Plasma samples were analyzed by LC-MS/MS.
Additional studies evaluating suspensions of crystalline drug substance in aqueous medium were performed as described above.

[5] = crystalline suspension in aqueous medium, read-out: Relative bioavailability when dosed as a crystalline suspension

T1 sequence (Q14524 whole entry): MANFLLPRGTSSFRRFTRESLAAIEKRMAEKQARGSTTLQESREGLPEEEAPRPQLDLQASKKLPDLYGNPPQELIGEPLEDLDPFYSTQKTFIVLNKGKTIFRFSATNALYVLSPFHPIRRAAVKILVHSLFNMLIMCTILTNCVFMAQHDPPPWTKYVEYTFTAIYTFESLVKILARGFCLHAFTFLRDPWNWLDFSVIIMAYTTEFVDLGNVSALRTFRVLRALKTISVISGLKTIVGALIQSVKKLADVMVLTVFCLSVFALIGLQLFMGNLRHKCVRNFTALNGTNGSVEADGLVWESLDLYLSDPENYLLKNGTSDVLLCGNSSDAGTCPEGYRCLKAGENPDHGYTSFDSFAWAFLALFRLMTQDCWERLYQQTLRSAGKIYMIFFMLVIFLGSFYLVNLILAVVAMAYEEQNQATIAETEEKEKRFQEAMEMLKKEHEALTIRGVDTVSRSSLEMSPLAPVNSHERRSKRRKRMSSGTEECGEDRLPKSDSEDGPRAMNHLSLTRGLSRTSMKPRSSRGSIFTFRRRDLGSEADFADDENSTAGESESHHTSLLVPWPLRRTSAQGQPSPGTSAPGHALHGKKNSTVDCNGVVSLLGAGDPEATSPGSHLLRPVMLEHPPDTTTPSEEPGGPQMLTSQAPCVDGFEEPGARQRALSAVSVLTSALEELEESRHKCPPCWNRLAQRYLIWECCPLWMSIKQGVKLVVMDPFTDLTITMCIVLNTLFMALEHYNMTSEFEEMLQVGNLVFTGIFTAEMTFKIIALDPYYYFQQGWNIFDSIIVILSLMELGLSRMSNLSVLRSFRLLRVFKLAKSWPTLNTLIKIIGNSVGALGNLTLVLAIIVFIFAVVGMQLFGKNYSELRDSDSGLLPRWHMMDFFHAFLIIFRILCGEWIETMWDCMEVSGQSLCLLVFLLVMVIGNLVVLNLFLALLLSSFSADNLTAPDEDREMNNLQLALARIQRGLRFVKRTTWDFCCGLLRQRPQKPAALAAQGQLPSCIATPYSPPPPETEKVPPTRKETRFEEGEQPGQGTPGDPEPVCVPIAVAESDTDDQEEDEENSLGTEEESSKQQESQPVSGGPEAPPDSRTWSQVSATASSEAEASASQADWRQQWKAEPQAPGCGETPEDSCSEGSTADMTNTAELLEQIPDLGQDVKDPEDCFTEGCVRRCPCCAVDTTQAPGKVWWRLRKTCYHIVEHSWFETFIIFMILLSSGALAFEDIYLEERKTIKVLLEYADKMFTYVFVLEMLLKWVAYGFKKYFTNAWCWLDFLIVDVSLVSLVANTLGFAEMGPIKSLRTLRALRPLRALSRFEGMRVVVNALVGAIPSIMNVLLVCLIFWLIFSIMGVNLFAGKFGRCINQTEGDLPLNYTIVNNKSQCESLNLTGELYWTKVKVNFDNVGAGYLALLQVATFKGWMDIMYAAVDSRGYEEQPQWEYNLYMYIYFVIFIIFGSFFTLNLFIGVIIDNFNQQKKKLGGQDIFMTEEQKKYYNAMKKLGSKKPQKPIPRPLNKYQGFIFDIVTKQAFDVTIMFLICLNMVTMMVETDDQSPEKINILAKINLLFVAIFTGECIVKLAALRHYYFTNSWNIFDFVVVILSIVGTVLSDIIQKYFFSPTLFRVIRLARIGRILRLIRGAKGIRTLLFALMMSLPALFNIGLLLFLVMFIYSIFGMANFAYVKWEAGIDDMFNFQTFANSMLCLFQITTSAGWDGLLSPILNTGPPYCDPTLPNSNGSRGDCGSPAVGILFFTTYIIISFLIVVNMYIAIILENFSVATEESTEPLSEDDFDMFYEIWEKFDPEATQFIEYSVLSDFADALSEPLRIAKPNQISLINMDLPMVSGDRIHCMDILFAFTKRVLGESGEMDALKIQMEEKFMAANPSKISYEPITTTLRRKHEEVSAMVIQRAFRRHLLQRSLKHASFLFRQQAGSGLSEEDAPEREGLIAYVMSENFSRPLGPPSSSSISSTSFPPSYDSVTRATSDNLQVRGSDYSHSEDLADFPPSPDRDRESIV

Compound	inhibition at 10 µM [1] [%]	Cmax: Free drug (at NOEL dose) [2] [µM]	Cmax: Free drug (at QT effect dose) [2] [µM]	NOEL dose ([2]; i.v. infusion) [mg/kg]	QT effect Dose [2] [mg/kg]	QTcf, delta ([2]; i.v. infusion)	clearance ([3]; male, beagle, dog, plasma) [mL/min/kg]	bioavailability ([3]; male, beagle, plasma, dog, oral solution, read-out: dog oral bioavailability when dosed as solution) [%]	clearance [4] [mL/min/kg]	bioavailability [4, 5] [%]	bioavailability ([4]; oral solution, read-out: Rat oral bioavailability when dosed as solution) [%]	dog oral bioavailability when dosed as solution ([3]; oral solution)	Rat oral bioavailability when dosed as solution ([4]; oral solution) [%]
CC(C)[C@@H](NC(=O)c1cccc(S(N)(=O)=O)c1)C(=O)N1CC[C@](O)(c2ccc(Cl)cc2)C(C)(C)C1 [Example 491]	13	3.1	5.5	10	30	+17 ms	7.9	100	67	0	23		
CC(C)[C@@H](NC(=O)[C@@H]1CC[C@@H](O)C1)C(=O)N1CC[C@](O)(c2ccc(Cl)cc2)C(C)(C)C1 [Example 572]	25	< 6.3	6.3		10	+22 ms	4.9		29	> 90		72	37
